Assay results reported in PubChem BioAssay AID1259411 (Chemical Carcinogenesis Research Information System (CCRIS), 2018).
Calls of active or inactive are those of the source. No rule for the calls is given here.

Test system: rodent carcinogenicity bioassays, tumor incidence
Experiment: CCRIS carcinogenicity studies
Outline: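 Archive of carcinogenicity, mutagenicity, tumor promotion and tumor inhibition results drawn from journals, NCI reports and other sources, expert-reviewed; covers 1985-2011 and is no longer updated.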

SMILES: c1ccc2c(c1)cc1ccc3cccc4c5ccccc5c2c1c34
- carcinogen call (Species: MOUSE, Route: DERMAL, Tumor Site: Type of Lesion: INTEGUMENTARY SYSTEM (SKIN)): active; positive
- carcinogen call (Species: MOUSE, Route: SUBCUTANEOUS, Tumor Site: Type of Lesion: INJECTION SITE): active; positive
- carcinogen call (Species: MOUSE, Strain/Sex: SWISS/FEMALE, Route: DERMAL, Dose: 0, 1, 4, 8 NMOL IN 100 µL ACETONE 2/WK FOR 40 WK (STUDY DURATION: 48 WK), Dose: 0, 1, 4, 8 NMOL IN 100 µL ACETONE 2/WK FOR 40 WK (STUDY DURATION: 48 WK), Tumor Site: Type of Lesion: SKIN: TUMORS): active; positive
- carcinogen call (Species: Mouse, Strain/Sex: B6129SF1/J v 129S1/SvImJ crosses, Route: Transplacental, Dose: 15 mg/kg bw in corn oil to dams on day 18 of gestation, study duration 10 months, Tumor Site: Type of Lesion: Lung and liver tumors): active; positive
- carcinogen call (Species: Mouse, Strain/Sex: B6129SF1x129S1/Svlmj/Male and female (215 in 4 groups), Route: In utero, nursing, or in utero and nursing, Dose: 15 mg/kg, gavage to pregnant B6129SF1 females, once on day 17 of pregnancy (Study duration 10 months from birth), Tumor Site: Type of Lesion: Lung): active; positive (surviving offspring exhibited 100% incidence with multiplicity of appr
- carcinogen call (Species: RAT, Strain/Sex: SPRAGUE-DAWLEY/FEMALE, Route: INJECTION, Dose: 0, 0.25, 1 UMOL PER MAMMARY GLAND (STUDY DURATION: 24 WK), Dose: 0, 0.25, 1 UMOL PER MAMMARY GLAND (STUDY DURATION: 24 WK), Tumor Site: Type of Lesion: MAMMARY GLAND: TUMOR): active; positive

SMILES: O[C@@H]1[C@@H]2O[C@@H]2c2c(ccc3cc4ccc5ccccc5c4nc23)[C@H]1O
- carcinogen call (Species: MOUSE, Strain/Sex: CD-1/FEMALE, Route: INTRAPERITONEAL, Dose: 0, 28 NMOL (TOTAL DOSE) ADMINISTERED AS 1/7 OF DOSE WITHIN 24 HR AFTER BIRTH, 2/7 OF DOSE AT 8 D OLD, 4/7 OF DOSE AT 15, Tumor Site: Type of Lesion: LUNG: TUMOR): active; positive
- carcinogen call (Species: MOUSE, Strain/Sex: CD-1/FEMALE, Route: INTRAPERITONEAL, Dose: 0, 70, 175 NMOL (TOTAL DOSE) ADMINISTERED AS 1/7 OF DOSE WITHIN 24 HR AFTER BIRTH, 2/7 OF DOSE AT 8 D OLD, 4/7 OF DOSE A, Dose: 0, 70, 175 NMOL (TOTAL DOSE) ADMINISTERED AS 1/7 OF DOSE WITHIN 24 HR AFTER BIRTH, 2/7 OF DOSE AT 8 D OLD, 4/7 OF DOSE A, Tumor Site: Type of Lesion: LIVER: TUMOR, LUNG: TUMOR): active; positive
- carcinogen call (Species: MOUSE, Strain/Sex: CD-1/MALE, Route: INTRAPERITONEAL, Dose: 0, 28 NMOL (TOTAL DOSE) ADMINISTERED AS 1/7 OF DOSE WITHIN 24 HR AFTER BIRTH, 2/7 OF DOSE AT 8 D OLD, 4/7 OF DOSE AT 15, Tumor Site: Type of Lesion: LIVER: TUMOR, LUNG: TUMOR): active; positive
- carcinogen call (Species: MOUSE, Strain/Sex: CD-1/MALE, Route: INTRAPERITONEAL, Dose: 0, 70, 175 NMOL (TOTAL DOSE) ADMINISTERED AS 1/7 OF DOSE WITHIN 24 HR AFTER BIRTH, 2/7 OF DOSE AT 8 D OLD, 4/7 OF DOSE A, Dose: 0, 70, 175 NMOL (TOTAL DOSE) ADMINISTERED AS 1/7 OF DOSE WITHIN 24 HR AFTER BIRTH, 2/7 OF DOSE AT 8 D OLD, 4/7 OF DOSE A, Tumor Site: Type of Lesion: LIVER: TUMOR, LUNG: TUMOR): active; positive

SMILES: COC(=O)c1c(Cl)c(Cl)c(C(=O)OC)c(Cl)c1Cl
- carcinogen call (Species: Mouse, Strain/Sex: CD-1/Female (60/group), Route: Oral, Dose: 0, 100, 1,000, 3,500, 7,500 ppm in diet for 2 yr, Dose: 0, 100, 1,000, 3,500, 7,500 ppm in diet for 2 yr, Tumor Site: Type of Lesion: Liver: Hepatocellular tumors (Significant only at highest dose)): active; positive (study details not given in source; purity 96.7%)
- carcinogen call (Species: Mouse, Strain/Sex: CD-1/Male (60/group), Route: Oral, Dose: 0, 100, 1,000, 3,500, 7,500 ppm in diet for 2 yr, Dose: 0, 100, 1,000, 3,500, 7,500 ppm in diet for 2 yr): inactive; negative (study details not given in source; purity 96.7%)
- carcinogen call (Species: Rat, Strain/Sex: Sprague-Dawley/Female (60/group), Route: Oral, Dose: 0, 1, 10, 50, 500, 1,000 mg/kg/day in diet for 2 yr, Dose: 0, 1, 10, 50, 500, 1,000 mg/kg/day in diet for 2 yr, Tumor Site: Type of Lesion: Thyroid: Follicular cell adenomas. Liver: Hepatocellular tumors): active; positive (as evaluated by ca dpr; study details not given in source; purity 97.7
- carcinogen call (Species: Rat, Strain/Sex: Sprague-Dawley/Male (60/group), Route: Oral, Dose: 0, 1, 10, 50, 500, 1,000 mg/kg/day in diet for 2 yr, Dose: 0, 1, 10, 50, 500, 1,000 mg/kg/day in diet for 2 yr, Tumor Site: Type of Lesion: Thyroid: Follicular cell adenomas): active; positive (evaluated as adverse effect by ca dpr; study details not given in sour

SMILES: O=P1(NCCCl)OCCCN1CCCl (stereo not given)
- carcinogen call (Species: MOUSE, Strain/Sex: B6C3F1/FEMALE, Route: INTRAPERITONEAL, Dose: 0, 10, 20 MG/KG IN BUFFERED SALINE 3/WK FOR 52 WK (STUDY DURATION: 79-80 WK), Dose: 0, 10, 20 MG/KG IN BUFFERED SALINE 3/WK FOR 52 WK (STUDY DURATION: 79-80 WK), Tumor Site: Type of Lesion: LYMPHATIC SYSTEM: MALIGNANT LYMPHOMA): active; positive
- carcinogen call (Species: MOUSE, Strain/Sex: B6C3F1/MALE, Route: INTRAPERITONEAL, Dose: 0, 10, 20 MG/KG IN BUFFERED SALINE 3/WK FOR 52 WK (STUDY DURATION: 79-80 WK), Dose: 0, 10, 20 MG/KG IN BUFFERED SALINE 3/WK FOR 52 WK (STUDY DURATION: 79-80 WK)): inactive; negative
- carcinogen call (Species: MOUSE, Strain/Sex: STRAIN-A/MALE,FEMALE, Route: INTRAPERITONEAL, Dose: 0, 18.8, 47 MG/KG IN WATER 3/WK FOR 8 WK, Dose: 0, 18.8, 47 MG/KG IN WATER 3/WK FOR 8 WK, Tumor Site: Type of Lesion: LUNG): active; positive
- carcinogen call (Species: RAT, Strain/Sex: SPRAGUE-DAWLEY/FEMALE, Route: INTRAPERITONEAL, Dose: 0, 6, 12 MG/KG IN BUFFERED SALINE 3/WK FOR 52 WK (STUDY DURATION: 79-83 WK), Dose: 0, 6, 12 MG/KG IN BUFFERED SALINE 3/WK FOR 52 WK (STUDY DURATION: 79-83 WK), Tumor Site: Type of Lesion: MAMMARY GLAND: CYSTADENOMA OR CYSTADENOCARCINOMA, UTERUS: LEIOMYOSARCOMA;ADRENAL GLAND: CORTICAL ADENOMA, Tumor Site: Type of Lesion: MAMMARY GLAND: CYSTADENOMA OR CYSTADENOCARCINOMA, UTERUS: LEIOMYOSARCOMA;ADRENAL GLAND: CORTICAL ADENOMA): active; positive
- carcinogen call (Species: RAT, Strain/Sex: SPRAGUE-DAWLEY/MALE, Route: INTRAPERITONEAL, Dose: 0, 6, 12 MG/KG IN BUFFERED SALINE 3/WK FOR 52 WK (STUDY DURATION: 79-83 WK), Dose: 0, 6, 12 MG/KG IN BUFFERED SALINE 3/WK FOR 52 WK (STUDY DURATION: 79-83 WK)): inactive; negative

SMILES: COP(=S)(OC)Oc1ccc([N+](=O)[O-])cc1
- carcinogen call (Species: MOUSE, Strain/Sex: B6C3F1/FEMALE, Route: ORAL, Dose: 0, 62.5, 125 PPM IN DIET, Dose: 0, 62.5, 125 PPM IN DIET): inactive; negative
- carcinogen call (Species: MOUSE, Strain/Sex: B6C3F1/MALE, Route: ORAL, Dose: 0, 35, 77 PPM IN DIET, TWA, Dose: 0, 35, 77 PPM IN DIET, TWA): inactive; negative
- carcinogen call (Species: RAT, Strain/Sex: F344/FEMALE, Route: ORAL, Dose: 0, 20, 40 PPM IN DIET, Dose: 0, 20, 40 PPM IN DIET): inactive; negative
- carcinogen call (Species: RAT, Strain/Sex: F344/MALE, Route: ORAL, Dose: 0, 20, 40 PPM IN DIET, Dose: 0, 20, 40 PPM IN DIET): inactive; negative

SMILES: CC(C)CCC[C@@H](C)[C@H]1CC[C@H]2[C@@H]3C[C@H]4O[C@]45C[C@@H](O)CC[C@]5(C)[C@H]3CC[C@]12C
- carcinogen call (Species: RAT, Strain/Sex: STRAIN-CD/FEMALE, Route: INJECTION, Dose: 0, 12.3 UMOL (TOTAL DOSE) 1/6 INJECTED UNDER EACH OF 3 THORACIC AND 3 INGUINAL NIPPLES ONCE (STUDY DURATION: 44 WK)): inactive; negative

SMILES: N[C@@H](CCC(=O)N[C@@H](CSc1cc(O)c(SC[C@H](NC(=O)CC[C@H](N)C(=O)O)C(=O)NCC(=O)O)c(SC[C@H](NC(=O)CC[C@H](N)C(=O)O)C(=O)NCC(=O)O)c1O)C(=O)NCC(=O)O)C(=O)O
- carcinogen call (Species: RAT, Strain/Sex: EKER(TSC2 MUTANT)/MALE, Route: INTRAPERITIONEAL, Dose: 0, 2.5 UMOL/KG BW 5 BW 5 D/WK FOR 4 MO FOLLOWED BY 3.5 UMOL/KG BW 5 D/WK FOR 6 MO (STUDY DURATION: 10 MO), Tumor Site: Type of Lesion: KIDNEY: ADENOMA OR CARCINOMA): active; positive
